Assay results reported in ChEMBL document CHEMBL1148200, “Kulokekahilide-2, a cytotoxic depsipeptide from a cephalaspidean mollusk Philinopsis speciosa” (J Nat Prod, 2004).

What was measured:
P388 = experiment: Cytotoxicity against mouse P388 cells; type: functional, cell-based
SK-OV-3 = experiment: Cytotoxicity against human SKOV3 cells; type: functional, cell-based
MDA-MB-435 = experiment: Cytotoxicity against human MDA-MB-435 cells; type: functional, cell-based
A10 = experiment: Cytotoxicity against rat A10 cells; type: cell-based

Structure (SMILES): C/C=C(\C)[C@H]1OC(=O)[C@H](C)NC(=O)[C@H]([C@@H](C)CC)NC(=O)CN(C)C(=O)[C@H](Cc2ccccc2)N(C)C(=O)[C@@H](C)NC(=O)[C@@H](CC(C)C)OC(=O)/C(C)=C/C[C@H](O)[C@@H]1C
- IC50 (P388): 4.2 nM
- IC50 (SK-OV-3): 7.5 nM
- IC50 (MDA-MB-435): 14.6 nM
- IC50 (A10): 59.1 nM
